# US20170008888A1 (KYORIN PHARMACEUTICAL CO., LTD., priority 2014, published 2017)
# How the values were obtained:
# ERK5 = molecular target: T1, ERK5 (Homo sapiens, UniProt Q13164); experiment: Probe-based (AX9989 acyl phosphate ATP probe) kinase profiling in Jurkat lysate: ERK5; type: binding; settings: for IC50: calculated from percent inhibition and screening concentration, Jurkat lysate, AX9989 probe; for inhibition at 1 µM: screening concentration 1 μM
# T1 construct: screened for activity against several kinases in Jurkat cells; endogenous in cells; host or cells: Jurkat cell lysate
# T1 sequence (Q13164 whole entry): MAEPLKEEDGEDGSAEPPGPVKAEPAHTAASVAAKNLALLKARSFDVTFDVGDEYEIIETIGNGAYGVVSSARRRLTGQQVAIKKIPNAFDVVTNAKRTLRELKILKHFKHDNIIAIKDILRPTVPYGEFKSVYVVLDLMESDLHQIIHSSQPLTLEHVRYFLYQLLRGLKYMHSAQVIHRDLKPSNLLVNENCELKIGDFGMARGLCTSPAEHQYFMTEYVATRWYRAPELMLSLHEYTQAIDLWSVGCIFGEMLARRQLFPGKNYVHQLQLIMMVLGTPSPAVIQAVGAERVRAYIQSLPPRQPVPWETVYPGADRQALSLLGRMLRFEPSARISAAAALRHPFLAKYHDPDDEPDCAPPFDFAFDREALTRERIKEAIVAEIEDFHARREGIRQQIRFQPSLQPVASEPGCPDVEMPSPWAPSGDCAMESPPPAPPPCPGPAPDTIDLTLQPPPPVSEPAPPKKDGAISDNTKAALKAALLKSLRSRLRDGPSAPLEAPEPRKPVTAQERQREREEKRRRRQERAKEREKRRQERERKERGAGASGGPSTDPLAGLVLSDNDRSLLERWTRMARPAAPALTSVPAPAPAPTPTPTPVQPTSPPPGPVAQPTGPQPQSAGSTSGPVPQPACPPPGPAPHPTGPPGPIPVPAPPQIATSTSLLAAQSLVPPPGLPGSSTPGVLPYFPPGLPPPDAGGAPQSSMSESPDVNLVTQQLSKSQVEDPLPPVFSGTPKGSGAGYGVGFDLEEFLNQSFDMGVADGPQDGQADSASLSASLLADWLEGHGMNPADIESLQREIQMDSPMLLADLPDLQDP
# Summary of the method: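 Gel-filtered Jurkat lysate (5 mg/ml, 20 mM MnCl2) preincubated 15 min at room temperature with compound, then labelled with 5 μM AX9989 acyl phosphate ATP probe. Probe-labelled ERK5 active-site peptides quantified by LC/MS after trypsin digestion and streptavidin capture; IC50 calculated from percent inhibition at the screening concentration.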
# AurA = molecular target: T2, AurA (Homo sapiens, UniProt O14965); experiment: Probe-based (AX9989) kinase profiling in Jurkat lysate: AurA; type: binding; settings: read-out: AurA Inhibition % at indicated screening concentration; for inhibition at 1 µM: screening concentration 1 μM
# T2 construct: screened for activity against several kinases in Jurkat cells; endogenous in cells; host or cells: Jurkat cell lysate
# T2 sequence (O14965 1-403): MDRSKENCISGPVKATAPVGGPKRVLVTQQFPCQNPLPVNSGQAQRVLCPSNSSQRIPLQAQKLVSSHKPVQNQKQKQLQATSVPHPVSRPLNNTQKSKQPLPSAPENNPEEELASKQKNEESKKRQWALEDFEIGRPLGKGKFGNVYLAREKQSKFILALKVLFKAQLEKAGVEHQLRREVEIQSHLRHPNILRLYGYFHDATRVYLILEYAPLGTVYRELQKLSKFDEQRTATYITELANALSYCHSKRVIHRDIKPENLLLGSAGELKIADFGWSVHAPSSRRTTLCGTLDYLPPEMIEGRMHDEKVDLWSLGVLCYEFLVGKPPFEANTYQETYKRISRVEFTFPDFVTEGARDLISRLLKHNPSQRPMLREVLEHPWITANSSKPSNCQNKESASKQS
# Summary of the method: (§1)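 Jurkat lysate, HEPES pH 7.5 buffer + 20 mM MnCl2; cpd 15 min RT; AX9989 ATP probe 5 μM final, RT. Trypsin digest, streptavidin capture, LC/MS; % inhibition vs vehicle from labeled-peptide signal.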
# AurB or AurC = experiment: Probe-based (AX9989) kinase profiling in Jurkat lysate: AurB or AurC; type: binding
# Summary of the method: as §1
# JAK1 = molecular target: T3, JAK1 (Homo sapiens, UniProt P23458); experiment: Probe-based (AX9989) kinase profiling in Jurkat lysate: JAK1; type: binding; settings: read-out: JAK1 Inhibition % at indicated screening concentration; for inhibition at 1 µM: screening concentration 1 μM
# T3 construct: screened for activity against several kinases in Jurkat cells; endogenous in cells; host or cells: Jurkat cell lysate
# T3 sequence (P23458 whole entry): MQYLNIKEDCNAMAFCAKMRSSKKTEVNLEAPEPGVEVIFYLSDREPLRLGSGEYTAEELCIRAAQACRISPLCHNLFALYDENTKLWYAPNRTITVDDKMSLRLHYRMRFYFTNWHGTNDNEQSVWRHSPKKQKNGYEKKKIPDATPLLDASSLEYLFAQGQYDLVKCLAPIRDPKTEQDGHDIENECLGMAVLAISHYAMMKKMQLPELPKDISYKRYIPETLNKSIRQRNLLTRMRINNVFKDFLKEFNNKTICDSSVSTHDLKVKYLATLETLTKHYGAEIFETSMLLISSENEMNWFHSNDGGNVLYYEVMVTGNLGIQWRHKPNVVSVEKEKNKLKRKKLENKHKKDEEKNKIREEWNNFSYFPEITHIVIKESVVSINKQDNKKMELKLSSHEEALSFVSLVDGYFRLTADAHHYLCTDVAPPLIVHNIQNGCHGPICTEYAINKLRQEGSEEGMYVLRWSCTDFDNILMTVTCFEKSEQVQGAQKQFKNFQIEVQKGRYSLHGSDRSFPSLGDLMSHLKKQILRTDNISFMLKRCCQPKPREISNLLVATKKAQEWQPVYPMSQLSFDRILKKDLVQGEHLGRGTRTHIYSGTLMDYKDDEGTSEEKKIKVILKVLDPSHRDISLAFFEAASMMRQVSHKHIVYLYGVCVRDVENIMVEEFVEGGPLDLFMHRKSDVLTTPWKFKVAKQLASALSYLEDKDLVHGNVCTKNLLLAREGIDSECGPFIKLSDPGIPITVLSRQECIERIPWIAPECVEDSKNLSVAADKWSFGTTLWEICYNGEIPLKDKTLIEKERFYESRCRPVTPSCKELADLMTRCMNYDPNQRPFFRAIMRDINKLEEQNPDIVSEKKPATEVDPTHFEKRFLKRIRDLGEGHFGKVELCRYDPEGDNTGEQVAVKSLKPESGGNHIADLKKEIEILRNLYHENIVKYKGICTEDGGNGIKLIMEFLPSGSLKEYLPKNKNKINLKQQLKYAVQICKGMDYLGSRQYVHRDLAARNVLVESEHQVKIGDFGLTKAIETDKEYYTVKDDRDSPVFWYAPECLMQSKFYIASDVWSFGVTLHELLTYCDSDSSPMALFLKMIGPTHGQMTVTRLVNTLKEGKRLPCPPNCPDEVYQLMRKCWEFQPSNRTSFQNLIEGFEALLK
# Summary of the method: as §1
# AMPKa1 or AMPKa2 = experiment: Probe-based (AX9989) kinase profiling in Jurkat lysate: AMPKa1 or AMPKa2; type: binding
# Summary of the method: as §1
# TAO2 = molecular target: T4, TAO2 (Homo sapiens, UniProt Q9UL54); experiment: Probe-based (AX9989) kinase profiling in Jurkat lysate: TAO2; type: binding; settings: read-out: TAO2 Inhibition % at indicated screening concentration; for inhibition at 1 µM: screening concentration 1 μM
# T4 construct: screened for activity against several kinases in Jurkat cells; endogenous in cells; host or cells: Jurkat cell lysate
# T4 sequence (Q9UL54 1-1235): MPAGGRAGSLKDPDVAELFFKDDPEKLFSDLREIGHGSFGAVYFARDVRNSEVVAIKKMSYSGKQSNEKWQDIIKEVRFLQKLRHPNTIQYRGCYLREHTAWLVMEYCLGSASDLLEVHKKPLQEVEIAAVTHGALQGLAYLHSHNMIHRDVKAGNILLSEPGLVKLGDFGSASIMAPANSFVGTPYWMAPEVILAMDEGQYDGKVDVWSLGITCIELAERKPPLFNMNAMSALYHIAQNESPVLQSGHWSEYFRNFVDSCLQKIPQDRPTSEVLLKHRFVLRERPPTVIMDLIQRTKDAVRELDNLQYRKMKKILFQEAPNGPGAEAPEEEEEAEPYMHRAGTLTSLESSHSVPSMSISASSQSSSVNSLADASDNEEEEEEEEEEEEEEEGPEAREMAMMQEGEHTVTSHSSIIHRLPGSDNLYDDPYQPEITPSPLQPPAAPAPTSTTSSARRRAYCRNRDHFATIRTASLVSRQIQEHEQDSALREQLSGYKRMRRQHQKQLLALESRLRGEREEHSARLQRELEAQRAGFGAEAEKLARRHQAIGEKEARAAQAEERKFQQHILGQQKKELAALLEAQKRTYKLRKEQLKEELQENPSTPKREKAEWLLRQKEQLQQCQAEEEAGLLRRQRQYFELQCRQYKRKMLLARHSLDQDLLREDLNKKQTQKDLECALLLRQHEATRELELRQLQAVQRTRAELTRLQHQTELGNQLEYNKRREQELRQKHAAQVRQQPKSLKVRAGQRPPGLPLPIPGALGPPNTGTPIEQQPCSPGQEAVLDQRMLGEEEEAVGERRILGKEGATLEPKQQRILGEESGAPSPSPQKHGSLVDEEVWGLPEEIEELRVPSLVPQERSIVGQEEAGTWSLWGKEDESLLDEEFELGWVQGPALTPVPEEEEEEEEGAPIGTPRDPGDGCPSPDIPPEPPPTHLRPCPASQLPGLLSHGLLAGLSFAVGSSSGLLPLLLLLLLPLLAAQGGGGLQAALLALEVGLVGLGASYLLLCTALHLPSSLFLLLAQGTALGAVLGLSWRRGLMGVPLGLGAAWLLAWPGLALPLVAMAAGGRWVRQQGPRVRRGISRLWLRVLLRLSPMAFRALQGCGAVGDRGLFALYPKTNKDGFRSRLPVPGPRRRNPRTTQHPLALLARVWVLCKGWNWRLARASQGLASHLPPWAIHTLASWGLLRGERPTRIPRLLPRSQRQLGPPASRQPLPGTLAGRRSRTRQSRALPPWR
# Summary of the method: as §1
# ACK = molecular target: T5, ACK (Homo sapiens, UniProt Q07912); experiment: Probe-based (AX9989) kinase profiling in Jurkat lysate: ACK; type: binding; settings: read-out: ACK Inhibition % at indicated screening concentration; for inhibition at 1 µM: screening concentration 1 μM
# T5 construct: screened for activity against several kinases in Jurkat cells; endogenous in cells; host or cells: Jurkat cell lysate
# T5 sequence (Q07912 whole entry): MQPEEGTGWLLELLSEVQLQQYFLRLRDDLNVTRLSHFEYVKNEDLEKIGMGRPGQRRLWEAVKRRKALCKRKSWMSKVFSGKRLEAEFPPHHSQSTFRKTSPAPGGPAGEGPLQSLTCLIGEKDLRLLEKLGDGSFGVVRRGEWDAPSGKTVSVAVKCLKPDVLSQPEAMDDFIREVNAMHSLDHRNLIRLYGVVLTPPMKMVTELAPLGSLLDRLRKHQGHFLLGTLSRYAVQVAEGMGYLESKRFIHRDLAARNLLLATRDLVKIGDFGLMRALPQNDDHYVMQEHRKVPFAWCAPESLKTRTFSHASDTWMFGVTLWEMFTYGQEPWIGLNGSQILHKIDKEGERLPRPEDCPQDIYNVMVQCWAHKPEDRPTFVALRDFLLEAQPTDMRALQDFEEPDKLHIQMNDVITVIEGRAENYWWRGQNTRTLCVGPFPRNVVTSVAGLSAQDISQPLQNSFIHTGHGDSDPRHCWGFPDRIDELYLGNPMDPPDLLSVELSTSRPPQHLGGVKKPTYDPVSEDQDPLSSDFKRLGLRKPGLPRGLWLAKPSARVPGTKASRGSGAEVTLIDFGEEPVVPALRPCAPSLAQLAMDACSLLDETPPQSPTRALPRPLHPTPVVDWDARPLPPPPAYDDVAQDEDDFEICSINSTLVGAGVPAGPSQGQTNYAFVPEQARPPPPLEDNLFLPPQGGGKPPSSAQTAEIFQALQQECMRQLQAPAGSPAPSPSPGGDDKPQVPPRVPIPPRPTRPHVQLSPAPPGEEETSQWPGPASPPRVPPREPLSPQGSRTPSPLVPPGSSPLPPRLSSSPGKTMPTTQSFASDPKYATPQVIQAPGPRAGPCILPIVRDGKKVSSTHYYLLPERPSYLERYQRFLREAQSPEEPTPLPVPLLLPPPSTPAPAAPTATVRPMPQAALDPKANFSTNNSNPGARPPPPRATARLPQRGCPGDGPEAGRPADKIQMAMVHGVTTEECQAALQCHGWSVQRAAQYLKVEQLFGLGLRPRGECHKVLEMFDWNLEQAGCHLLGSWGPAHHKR
# Summary of the method: as §1
# ABL or ARG = experiment: Probe-based (AX9989) kinase profiling in Jurkat lysate: ABL or ARG; type: binding
# Summary of the method: as §1
# human PBMCs = experiment: Human PBMC TNF-α response to endotoxin (ELISA); type: cell-based; settings: 0.1 μg/ml LPS 16 h, read-out: EC50 for the inhibition of the human PBMC TNF-α response to endotoxin, ave. ± S.D.
# Summary of the method: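 PBMCs at 2e6 cells/ml in RPMI 1640 with 10% charcoal-dextran-treated FBS were pre-treated 1 h at 37 °C with compound (4-point 1:5 dilution from 10 μM). Stimulation with 0.1 μg/ml E. coli 0111:B4 LPS for 16 h; TNF-α measured by ELISA (A450) in 25-fold diluted supernatant.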
# [1] = read-out: ERK5 Inhibition % at indicated screening concentration
SMILES,IC50 (ERK5) [nM],inhibition at 1 µM (ERK5; [1]) [%],inhibition at 1 µM (AurA) [%],AurB or AurC Inhibition % at indicated screening concentration (AurB or AurC; screening concentration 1 μM),inhibition at 1 µM (JAK1) [%],AMPKa1 or AMPKa2 Inhibition % at indicated screening concentration (AMPKa1 or AMPKa2; screening concentration 1 μM),inhibition at 1 µM (TAO2) [%],inhibition at 1 µM (ACK) [%],ABL or ARG Inhibition % at indicated screening concentration (ABL or ARG; screening concentration 1 μM),EC50 (human PBMCs) [µM],"inhibition at 10 µM (ERK5; screening concentration 10 μM, read-out: ERK5 Inhibition % at indicated screening concentration) [%]",inhibition at 10 µM (AurA; screening concentration 10 μM) [%],AurB or AurC Inhibition % at indicated screening concentration (AurB or AurC; screening concentration 10 μM),inhibition at 10 µM (JAK1; screening concentration 10 μM) [%],AMPKa1 or AMPKa2 Inhibition % at indicated screening concentration (AMPKa1 or AMPKa2; screening concentration 10 μM),inhibition at 10 µM (TAO2; screening concentration 10 μM) [%],inhibition at 10 µM (ACK; screening concentration 10 μM) [%],ABL or ARG Inhibition % at indicated screening concentration (ABL or ARG; screening concentration 10 μM)
CCOc1cc(C(=O)N2CC[C@@H](N3CCN(C)CC3)C2)ccc1Nc1cc2c(cn1)N(C)C(=O)c1ccccc1N2C1CC1 [Compound T68],≤ 50,> 90,≤ 35,E (E is ≦35%),≤ 35,E (E is ≦35%),≤ 35,≤ 35,E (E is ≦35%),1.4,,,,,,,,
CN1CCN([C@@H]2CCN(C(=O)c3ccc(Nc4cc5c(cn4)N(C)C(=O)c4ccccc4N5C)c(F)c3)C2)CC1 [Compound T69],≤ 50,> 90,≤ 35,E (E is ≦35%),≤ 35,E (E is ≦35%),≤ 35,35 to 50,E (E is ≦35%),3.48,,,,,,,,
CC(=O)N1CCN(C(=O)c2ccc(Nc3cc4c(cn3)N(C)C(=O)c3ccccc3N4C)c(F)c2)CC1 [Compound T71],≤ 50,> 90,≤ 35,E (E is ≦35%),≤ 35,E (E is ≦35%),≤ 35,≤ 35,E (E is ≦35%),4.2,,,,,,,,
CN1C(=O)c2ccccc2N(C)c2cc(Nc3ccc(C(=O)N4CCN(S(C)(=O)=O)CC4)cc3F)ncc21 [Compound T72],≤ 50,> 90,≤ 35,D (D is >35% to ≦50%),≤ 35,E (E is ≦35%),≤ 35,≤ 35,E (E is ≦35%),4.25,,,,,,,,
CCOc1cc(C(=O)N2CCN(C(C)=O)CC2)ccc1Nc1cc2c(cn1)N(C)C(=O)c1scnc1N2C [Compound T73],> 500,35 to 50,≤ 35,E (E is ≦35%),≤ 35,E (E is ≦35%),≤ 35,≤ 35,E (E is ≦35%),> 10,,,,,,,,
CCOc1cc(C(=O)N2CC[C@@H](N3CCN(C)CC3)C2)ccc1Nc1cc2c(cn1)N(C)C(=O)c1scnc1N2C [Compound T74],> 500,50 to 75,≤ 35,E (E is ≦35%),≤ 35,E (E is ≦35%),≤ 35,≤ 35,E (E is ≦35%),4.82,,,,,,,,
CN1CCN([C@@H]2CCN(C(=O)c3ccc(Nc4cc5c(cn4)N(C)C(=O)c4ccccc4N5C)c(OC(F)F)c3)C2)CC1 [Compound T75],≤ 50,> 90,≤ 35,E (E is ≦35%),≤ 35,E (E is ≦35%),≤ 35,≤ 35,E (E is ≦35%),1.55 ± 1.11,,,,,,,,
[2H]C([2H])([2H])N1C(=O)c2ccccc2N(C([2H])([2H])[2H])c2cc(Nc3ccc(C(=O)N4CCN(C(C)=O)CC4)cc3OCC)ncc21 [Compound T77],50 to 100,> 90,≤ 35,E (E is ≦35%),≤ 35,E (E is ≦35%),≤ 35,≤ 35,E (E is ≦35%),6.33,,,,,,,,
CCOc1cc(C(=O)N2CCN(C3CCN(C)CC3)CC2)ccc1Nc1cc2c(cn1)N(C)C(=O)c1ccccc1N2C1CC1 [Compound T79],≤ 50,> 90,≤ 35,E (E is ≦35%),≤ 35,E (E is ≦35%),≤ 35,≤ 35,E (E is ≦35%),7.2,,,,,,,,
CCOc1cc(C(=O)N2CCN(C3CCN(C)CC3)CC2)ccc1Nc1cc2c(cn1)N(C)C(=N)c1ccccc1N2C [Compound T80],> 500,,,,,,,,,> 15,≤ 35,≤ 35,E (E is ≦35%),≤ 35,E (E is ≦35%),≤ 35,≤ 35,E (E is ≦35%)
